Tests used:
F1F0-ATPase = F1F0-ATPase inhibition; cited from earlier work
Ramos cells [1] = experiment: Detection of cell death in Ramos cells, viability by propidium iodide staining; format: cell-based; conditions: 24 hours, 2% FBS, PI 1 μg/mL, FIG. 1
Procedure: (§1) Ramos cells were exposed to the following compounds:
Cell viability was assessed by staining with propidium iodide (PI, 1 μg/mL).

Ramos cells [2] = experiment: Ramos cells exposed to compounds, O2- detected with dihydroethidium (DHE); format: cell-based; conditions: 1 hour, 2% FBS, FIG. 2
Procedure: as §1
To detect O2^−, cells were incubated with dihydroethidium (DHE).

Row | Structure (SMILES) | IC50 (F1F0-ATPase) | cellular death (cell viability by propidium iodide staining) (Ramos cells [1]) | cellular death (O2- detection with dihydroethidium) (Ramos cells [2])
1 | CC[C@H]1/C=C/C=C/C[C@@H](C)[C@H](O)[C@@](C)(O)C(=O)[C@@H](C)[C@H](O)[C@@H](C)C(=O)[C@@H](C)[C@H](O)[C@@H](C)/C=C/C(=O)O[C@@H]2[C@H](C)[C@H](CC1)O[C@]1(CC[C@H](C)[C@H](C[C@@H](C)O)O1)[C@H]2C [oligomycin] | 10 nM | – | –
2 | CC1CN(c2ccc(O)cc2)c2cc(Cl)ccc2N(Cc2ccc3ccccc3c2)C1=O (stereo not drawn) [GD-423] | – | causes cell death | causes cell death
